Experimental data from US11602538B2, “Prophylaxis and treatment of cognitive dysfunction and decline” (The Florey Institute of Neuroscience and Mental Health, priority 2017, dated 2023).
Entries after “also recorded” stand apart in the source; their conditions may differ.

Tests used:
Format in all cases: in vivo, mouse
[1] = tested on: doublecortin (DCX); experiment: Doublecortin expression in Tg2576 brain; details: Tg2576 hippocampus; vs SSV littermates
Experimental: (§1) For the behaviorally assessed animals the cortex and hippocampus of both ipsilateral and contralateral hemispheres were homogenized in 15 volumes of ice-cold PBS containing Complete Protease Inhibitor Cocktail tablets (Roche Applied Science, Indianapolis, Ind., USA) and subsequently centrifuged (100,000×g) for 30 minutes at 4° C. Supernatant was removed to yield the soluble fraction (S1). Remaining pellet underwent further extraction via 30 minutes of vigorous agitation in above mentioned homogenization buffer containing 2% (vol/vol) Triton X100. Insoluble material was pelleted via centrifugation (20,000×g) for 20 minutes, and supernatant was retained as the membrane fraction (P1). Protein concentrations were determined using Pierce BCA protein assay (Pierce Biotechnology, Rockford, Ill., USA) to ensure equal loading of 10 μg protein samples on gel. Samples were prepared for PAGE by the addition of 4× protein sample loading buffer (LICOR, Lincoln, Nebr., USA) and 10× NuPAGE sample reducing agent (to a final 1× concentration). […] Blots were rinsed in TBST and incubated with appropriate secondary antibody (1 h, RT), followed by further rinsing and imaged using a LI-COR Odyssey Imaging system (LI-COR Biosciences, Lincoln Nebr., USA), and analysed with Image Studio Lite software (LI-COR Biosciences, Lincoln Nebr., USA). […]

[2] = tested on: mice receiving a controlled cortical impact traumatic brain injury (TBI); experiment: Open field assessment after TBI; details: treated post-TBI, dosing day 19, vs SSV control
Experimental: (§2) Surgical procedures and controlled cortical impact (CCI) have been previously described (see Portbury et al., 2015, Metallomics. doi:10.1039/c5mt00234f). Briefly, 3 month-old male C57B16 mice were anesthetized via intraperitoneal injection of 100 mg/kg ketamine and 10 mg/kg xylazine. A 10 mm mid-line incision was made over the skull, and the skin and fascia were reflected to make a 4 mm craniotomy on the central aspect of the right parietal bone using a motorized drill. Upon animal positioning in a stereotaxic frame a CCI injury was subsequently delivered (3 m/s velocity with a 1.5 mm penetration depth).
(§3) Three groups of animals were subjected to TBI as separate experiments. The first group of animals were treated daily with 2% trehalose in SSV solution at 0.1 ml per 10 g body weight via oral gavage for a period of 31 days or SSV solution following the TBI. […] The second groups of animals underwent an identical dosing procedure but were treated with either SSV or maltose as a disaccharide control for trehalose. […] A further group of animals was pre-treated with trehalose prior to TBI. These pre-treated mice received a daily treatment of 2% trehalose in SSV solution at 0.1 ml per 10 g body weight via oral gavage for 7 days prior to TBI. Following TBI, these animals received SSV solution only for the remaining duration of the experiment.
(§4) The Morris Water Maze (MWM) was used to assess the effect of trehalose on spatial learning and memory function following TBI. The pre-training acclimation day of the water maze was performed on day 23 of dosing, followed by six days of place discrimination training of four 90 second trials per day, conducted on days 24-29 of dosing. The probe trial was performed 24 hours after training on dosing day 30 to assess retention of the task. Data was analysed using the Ethovision automated tracking system. Animals were culled on day 31. Both experimental groups adhered to the same time lines of behavioral assessment. The open field assessment was performed on day 19 of dosing and the Y-maze assessment was performed on day 21 of dosing.
(§5) For LA-ICPMS samples, statistical analysis was carried out in Prism 7 (Graph-Pad) software. Analysis was carried out with a two-tailed t test with the level of significance set at p=0.05. For multiple comparisons two-way ANOVA was used to identify significant differences between ipsilateral and contralateral ROI's. For western blot analysis, images were produced using Image Studio Lite (version 4.0.21, LI-COR Biosciences) and subsequent statistical analysis was carried out in Prism 7 (Graph-Pad). All behavioral analysis was performed using Prism 7 (Graph-Pad).

[3] = tested on: mice receiving a controlled cortical impact traumatic brain injury (TBI); experiment: Volumetric analysis of cortical tissue loss after TBI; details: treated after TBI; vs controls
Experimental: as §2, §3

[4] = tested on: synaptophysin; experiment: Western blot of brain tissue after TBI: synaptophysin
Experimental: as §3
as §1, with “concentration). Samples were heated to 70° C. for 10 min, loaded onto Bolt 4-12% Bis-Tris Plus gels (Invitrogen-Life Technologies, Grand Island, N.Y., USA) along with Licor One-Color protein molecular weight markers (LICOR, Lincoln, Nebr., USA) and run at 125 V for 60 min in appropriately diluted Bolt MES SDS 20× running buffer (Invitrogen-Life Technologies, Grand Island, N.Y., USA). Gels were transferred to Immobilon—PF, PVDF membrane (Millipore) using the Invitrogen Bolt wet-gel Transfer Device (Invitrogen-Life Technologies, Grand Island, N.Y., USA) at 15 V for 60 min in appropriately diluted 20× Bolt transfer buffer (Invitrogen-Life Technologies, Grand Island, N.Y., USA).” for “concentration).”

[5] = tested on: Pro-BDNF; experiment: Western blot of brain tissue after TBI: Pro-BDNF
Experimental: as §3, §1

[6] = tested on: mice receiving a controlled cortical impact traumatic brain injury (TBI); experiment: Morris water maze after controlled cortical impact TBI; details: for escape latency / acquisition of the task (learning component), Morris water maze / probe day 24-hour task retention (recall component), Morris water maze: treated post-TBI daily by oral gavage, 2% in SSV; for escape latency / acquisition of the task (learning component), Morris water maze: 0.1 ml per 10 g, training on dosing days 24-29; for probe day 24-hour task retention (recall component), Morris water maze: dosing day 30
Experimental: Trehalose (Sigma) has a generous safety profile in rodents and humans has been posted as “Generally Regarded as Safe” (GRAS) for human consumption by the U.S. Federal Drug Administration (FDA) in October 2000, is used as a food additive, and is also an excipient in many pharmaceuticals, making trehalose a safe, natural and pharmaceutically accepted product. In this study, it was supplied as a 2% w/v in standard suspension vehicle (SSV) solution via oral gavage at a dose of 0.1 ml to 10 g body weight. SSV solution was purchased from Sigma and contains 0.9% sodium chloride (NaCl), 0.5% Sodium carboxymethylcellulose (Na-CMC), 0.5% Benzyl alcohol, 0.4%, Tween 80 (polyoxyethylenesorbitan monooleate).
as §2, §3, §4, §5

[7] = tested on: Tg2576 transgenic mice; experiment: Morris water maze in Tg2576 Alzheimer's disease model
Experimental: (§6) Transgenic Tg2576 mice were treated daily with 2% trehalose (0.1 ml/10 g body weight) in SSV (Sigma)(n=15, average age 16.2±3 months of age) via oral gavage or SSV (saline vehicle suspension) (n=12, 16±3 months of age). Mice were dosed for a period of 31 days, with the Morris water maze commencing on day 23 of dosing. Mice were culled on day 31, and DCX and synaptophysin expression were assessed.

[8] = tested on: LC3; experiment: Autophagy by LC3 western blot after TBI; details: between trehalose, SSV and maltose treated groups after TBI
Experimental: as §3
For the behaviorally assessed animals the cortex and hippocampus of both ipsilateral and contralateral hemispheres were homogenized in 15 volumes of ice-cold PBS containing Complete Protease Inhibitor Cocktail tablets (Roche Applied Science, Indianapolis, Ind., USA) and subsequently centrifuged (100,000×g) for 30 minutes at 4° C. Supernatant was removed to yield the soluble fraction (S1). […] Protein concentrations were determined using Pierce BCA protein assay (Pierce Biotechnology, Rockford, Ill., USA) to ensure equal loading of 10 μg protein samples on gel. […]

[9] = tested on: doublecortin (DCX); experiment: Western blot of brain tissue after TBI: doublecortin
Experimental: as §3
as §1, with “concentration). Samples were heated to 70° C. for 10 min, loaded onto Bolt 4-12% Bis-Tris Plus gels (Invitrogen-Life Technologies, Grand Island, N.Y., USA) along with Licor One-Color protein molecular weight markers (LICOR, Lincoln, Nebr., USA) and run at 125 V for 60 min in appropriately diluted Bolt MES SDS 20× running buffer (Invitrogen-Life Technologies, Grand Island, N.Y., USA). Gels were transferred to Immobilon—PF, PVDF membrane (Millipore) using the Invitrogen Bolt wet-gel Transfer Device (Invitrogen-Life Technologies, Grand Island, N.Y., USA) at 15 V for 60 min in appropriately diluted 20× Bolt transfer buffer (Invitrogen-Life Technologies, Grand Island, N.Y., USA).” for “concentration).”

[10] = tested on: synaptophysin; experiment: Synaptophysin expression in Tg2576 brain
Experimental: as §1, with “concentration). Samples were heated to 70° C. for 10 min, loaded onto Bolt 4-12% Bis-Tris Plus gels (Invitrogen-Life Technologies, Grand Island, N.Y., USA) along with Licor One-Color protein molecular weight markers (LICOR, Lincoln, Nebr., USA) and run at 125 V for 60 min in appropriately diluted Bolt MES SDS 20× running buffer (Invitrogen-Life Technologies, Grand Island, N.Y., USA).” for “concentration).”
as §6, with “Mice were dosed for a period of 31 days, with the Morris water maze commencing on day 23 of dosing.” left out

[11] = tested on: brain derived neurotrophic factor (BDNF); experiment: Western blot of brain tissue after TBI: BDNF
Experimental: as §3, §1

[12] = tested on: mice receiving a controlled cortical impact traumatic brain injury (TBI); experiment: Y-maze assessment after TBI; details: for five-minute frequency of visits into the novel arm, Y-maze / one-minute duration of time in the novel arm, Y-maze / one-minute frequency of visits into the novel arm, Y-maze: treated post-TBI, dosing day 21, vs SSV
Experimental: as §2, §3, §4, §5

[13] = contralateral cortex, vs SSV and maltose
[14] = contralateral cortex, vs SSV and maltose, listed as Trehalose
[15] = contralateral hippocampus or ipsilateral cortex and hippocampus
[16] = pre-treated 7 days before TBI, vs SSV littermates

In the case of OC[C@H]1O[C@H](O[C@H]2O[C@H](CO)[C@@H](O)[C@H](O)[C@H]2O)[C@H](O)[C@@H](O)[C@@H]1O [trehalose], the DCX protein expression [1] was “increased; also recorded: significant (p<0.0401) increase”, the “ambulatory time, open field” value [2] was “significant increase” and the “ambulatory velocity, open field” value [2] was “no significant difference”. For the same compound, the “total ambulatory distance, open field” value [2] was “significant increase”, the “vertical counts, open field” value [2] was “significant increase” and the “ambulatory velocity, open field” value ([2]; listed as Trehalose) was “without a significant increase”. For the same compound, the cortical tissue loss [3] was “no difference”, the synaptophysin protein expression ([4]; contralateral cortex, 31 days post-TBI, vs SSV and maltose controls) was “significantly elevated expression” and the synaptophysin protein expression ([4]; contralateral cortex, 31 days post-TBI, vs SSV and maltose controls, listed as Trehalose) was “significantly increased”. For the same compound, the synaptophysin protein expression ([4]; contralateral hippocampus, ipsilateral cortex and hippocampus) was “no significant elevation”, the synaptophysin protein expression ([4]; ipsilateral hippocampus, vs control groups) was “non-significant elevation” and the pro-BDNF protein [5, 13] was “significant increase”. The pro-BDNF protein [5, 14] was “significantly increased”, the pro-BDNF protein [5, 15] was “not significantly elevated” and the “learning component, Morris water maze” value ([6]; pre-treated 7 days before TBI with 2% oral gavage, SSV only after TBI, vs SSV controls) was “outperformed SSV controls in the learning (FIG. 1a) component of the water maze trial, although not significantly”. For the same compound, the “recall component, Morris water maze” value ([6]; pre-treated 7 days before TBI with 2% oral gavage, SSV only after TBI, vs post-treated mice and SSV controls) was “significantly outperform trehalose post-treated mice and SSV controls”, the “escape latency / acquisition of the task (learning component), Morris water maze” value ([6]; vs SSV controls) was “overall significant performance improvement” and the “probe day 24-hour task retention (recall component), Morris water maze” value ([6]; vs SSV controls) was “overall significant performance improvement; also recorded: significant improvement in memory”. The “cognitive improvement in the Morris water maze” value ([7]; 2% trehalose daily oral gavage for 31 days) was “significant cognitive improvement”, the “escape latency, Morris water maze” value ([7]; 2% trehalose daily oral gavage for 31 days, vs Tg2576 SSV littermates) was “significant decrease” and the “time spent in the relevant quadrant, Morris water maze” value ([7]; 2% trehalose daily oral gavage, vs SSV littermates) was “significant (p<0.0003) increase”. For the same compound, the “enhancement in autophagy (LC3)” value [8] was “not detectable”, the DCX protein ([9]; contralateral cortex, vs SSV and maltose controls) was “significant increase” and the DCX protein ([9]; contralateral cortex, vs SSV and maltose controls, listed as Trehalose) was “significantly increases”. The DCX protein ([9]; contralateral hippocampus or ipsilateral cortex and hippocampus, vs control groups) was “absence of elevated DCX”, the DCX expression ([9]; ipsilateral cortex and hippocampus, vs SSV and maltose controls) was “significantly decreased” and the synaptophysin protein expression ([10]; Tg2576 cortex, trehalose vs SSV) was “no significant difference”. The synaptophysin protein expression ([10]; Tg2576 hippocampus, vs SSV littermates) was “increased”, the synaptophysin protein expression ([10]; Tg2576 hippocampus, vs SSV littermates, listed as Trehalose) was “significant increase” and the BDNF protein [11, 13] was “significant increase”. For the same compound, the BDNF protein [11, 14] was “significantly increased”, the BDNF protein [11, 15] was “not significantly elevated” and the “five-minute frequency, Y-maze” value [12, 16] was “performed significantly better”. For the same compound, the “one-minute duration, Y-maze” value [12, 16] was “performed significantly better”, the “one-minute frequency, Y-maze” value [12, 16] was “performed significantly better” and the “five-minute duration, Y-maze” value ([12]; pre-treated 7 days before TBI, vs post-treatment and SSV mice) was “significantly outperformed both the trehalose post-treatment and SSV treated mice”. For the same compound, the “five-minute frequency of visits into the novel arm, Y-maze” value [12] was “significantly enhanced”, the “one-minute duration of time in the novel arm, Y-maze” value [12] was “significantly greater duration of time in the novel arm; also recorded: significant overall duration of time in the novel arm” and the “one-minute frequency of visits into the novel arm, Y-maze” value [12] was “significantly enhanced”. The “five-minute frequency of visits into the novel arm, Y-maze” value ([12]; listed as Trehalose) was “significant overall frequency of visitation preference for the novel arm” and the “one-minute frequency of visits into the novel arm, Y-maze” value ([12]; listed as Trehalose) was “significant overall frequency of visitation preference for the novel arm”.
For OC[C@H]1O[C@H](O[C@H]2[C@H](O)[C@@H](O)C(O)O[C@@H]2CO)[C@H](O)[C@@H](O)[C@@H]1O (mixture of isomers) [maltose], the “escape latency / acquisition of the task (learning component), Morris water maze” value ([6]; vs SSV controls) was “no such improvement; also recorded: no significant differences”, the “probe day 24-hour task retention (recall component), Morris water maze” value ([6]; vs SSV controls) was “no such improvement; also recorded: no significant differences” and the “five-minute frequency of visits into the novel arm, Y-maze” value [12] was “no significant preference for the novel arm; also recorded: no significant improvement”. The “one-minute duration of time in the novel arm, Y-maze” value [12] was “no significant improvement” and the “one-minute frequency of visits into the novel arm, Y-maze” value [12] was “no significant preference for the novel arm; also recorded: no significant improvement”.
